# Patent US6017880A, “Inhibition of retrovirus infection” (Amgen Inc., priority 1995, dated 2000)
# Tested on: U937 cells
# Test: Number of SLPI binding sites on PMA-induced U937 cells (Scatchard plot)
# Type: cell-based, human
# Details: PMA 25 ng per ml, 48 hours, versus non-induced cells
# Experimental: U937 cells were induced by 13-phorbol-12-myristate acetate ("PMA").
# U937 cells at an initial concentration of 10,000 cells per ml were placed in two flasks. PMA was added to one flask at a final concentration of 25 ng per ml. After 48 hours, cells were harvested from both flasks. Using the method of Dripps et al., J. Biol. Chem., Vol. 266, No. 16, pp. 10331-10336 (1991), and labelling with I-125, having a specific activity of 91.5 Curries per millimole, the number of SLPI binding sites was determined. […] In this experiment, the Kd in non-induced cells was 1.1 lnM; The Kd in PMA-induced cells was 1.0 nM. The reduction in the number of SLPI binding sites in the PMA-induced cells is consistent with SLPI binding to elastase and cathepsin G on the cell surface.
smiles,measurement,value
"CCCCCCCCCCCCCC(=O)O[C@@H]1[C@@H](C)[C@@]2(O)[C@@H](C=C(CO)C[C@]3(O)C(=O)C(C)=C[C@@H]23)[C@@H]2C(C)(C)[C@]12OC(C)=O [PMA, 13-phorbol-12-myristate acetate]",Reduction in the number of SLPI binding sites,70%
